Test results from patent publication US20240252510A1, “COMPOSITION CONTAINING HOMOHARRINGTONINE AS ACTIVE INGREDIENT FOR PREVENTING OR TREATING MUSCLE DISEASES” (RESEARCH COOPERATION FOUNDATION OF YEUNGNAM UNIVERSITY, priority 2021, published 2024).
“Also recorded” adds a separate entry of the source.

Columns and labels:
[1] = system: animal model with lower limb fixation-induced muscular atrophy; experiment: Animal model with lower limb fixation-induced muscular atrophy: body weight, dietary intake, muscle weights; format: in vivo, C57BL/6 male mice; conditions: lower limb fixation mice; 0.545 μg/g i.p. three times a week for 4 weeks; vs phosphate-buffered saline group
Description: 8-week-old C57BL/6 male mice were adapted to the breeding environment for 1 week and then treated with homoharringtonine for 1 week, and the left lower limb was fixed using a stapler and maintained for 3 weeks. The animal model with lower limb fixation-induced muscular atrophy is an animal model for inducing muscular atrophy by reducing a load of body weight, and induction was conducted using a skin stapler (Manipler AZ, Utsunomiya, Tochigi, Japan) according to a method of Caron et al. (A novel hindlimb immobilization procedure for studying skeletal muscular atrophy and recovery in mouse. J Appl Physiol. 2009 June; 106(6):2049-59.). The unfixed right side was used as a control group.
For a total of 4 weeks from 1 week before fixation to 3 weeks of fixation, phosphate-buffered saline was administered to the control group and homoharringtonine (0.545 μg/g body weight) was administered to the experimental group three times a week intraperitoneally.

old mice = experiment: Old mouse model: body weight, dietary intake, gastrocnemius weight; format: in vivo, 18-month-old C57BL/6 mice
Description: An 18-month-old C57BL/6 was purchased, and maintained in the same breeding environment as above the high-fat diet-induced animal model, and fed with a normal chow diet during the experiment. After adapting the old mice to the breeding environment for 1 week, they were randomly divided into a control group and an experimental group, and phosphate-buffered saline was administered to the control group and homoharringtonine (0.545 μg/g body weight) was administered to the experimental group intraperitoneally three times a week for more than 4 months.

COC(=O)C[C@](O)(CCCC(C)(C)O)C(=O)O[C@@H]1C(OC)=C[C@]23CCCN2CCc2cc4c(cc2[C@H]13)OCO4 [homoharringtonine]
body weight [1]: no statistically significant difference | body weight (old mice; 0.545 μg/g i.p. three times a week, vs phosphate-buffered saline group): did not show a significant difference; also recorded: no statistically significant difference | body weight after 6 months of administration (old mice; another experimental group, 6 months of injection, vs control group): no significant difference
